One compound from US20250353825A1, “CANNABICYCLOL DERIVATIVES AND PREPARATION METHODS THEREOF” (priority 2023, published 2025) can be followed below.

Type in all cases: cell-based
One data set has as its system GSC-3 (3#-GSC). The experiment in a line: MTS cell viability assay, glioblastoma stem cells GSC-3 (3#-GSC). The method, then:
(§1) Primary viability screening: (1) the synthesized compounds 3a to 13d were respectively dissolved in DMSO to prepare a 40 μg/mL cannabicyclol and cannabicyclol derivative solutions.
(§2) (2) A control group: a 200 μL DMSO solvent.
(§3) (3) The solutions of compounds 3a to 13d were diluted in a twofold gradient to obtain cannabicyclol and cannabicyclol derivative solutions at concentrations of 40 μg/mL, 20 μg/mL, 10 μg/mL, 5 μg/mL, 2.5 μg/mL, 1.25 μg/mL, and 0.625 μg/mL, and 0.3125 μg/mL, respectively.
(§4) (4) Three glioblastoma stem cells (GSC-3, GSC-12, and GSC-18), three pancreatic cancer cell-derived stem cells (PANC-1-CSC, BXPC-3-CSC, and ASPC1-CSC), three liver cancer cell-derived stem cells (HepG2-CSC, MHCC97H-CSC, and SMMC7721-CSC), HEK-293T cells, 16 tumor cells (U251, U87, T98G, PANC1, BXPC3, ASPC1, HepG2, MHCC97H, SMMC7721, PC3, SKOV3, MDA-MB231, A549, HCT116, HEC-1B, MKN28), and differentiated glioblastoma stem cells (GSC-3diff and GSC-12diff) derived from GSC-3 and GSC-12 (all of the cells were provided by the Laboratory of Tumor Animal Model Preparation and Application Research, West China Hospital, Sichuan University) were inoculated into a 96-well plate at a concentration of 2×10^4 cells/well, and 100 μL of culture medium was then added to each well;
(5) 2) HEK-293T, GSC-3diff, GSC-12diff, and the 16 tumor cells were added with DMEM, 10% FBS, and 1% double antibody culture medium. Cancer stem cells (CSCs) were added with serum-free stem cell medium consisting of DMEM/F12, EGF (20 ng/mL), bFGF (20 ng/mL), B27 (1×), and 1% double antibody culture medium.
(6) Inoculated cells were put into a cell culture incubator for 24 hours, and after the cells were well adhered to the wall, the culture medium in the 96-well plate was discarded.
(7) 200 μL cannabicyclol and cannabicyclol derivatives solutions at different concentrations were added to the cultured cells.
(8) The experiment was set up with 3 replicates.
(9) The 96-well plate was placed in a cell culture incubator, and incubation was continued at 37° C. and 5% CO2 for 72 hours. Then, 100 μL of cannabicyclol and cannabicyclol derivative solution per well was discarded (100 μL of DMSO solvent was discarded for the control group), and 20 μL of LMTS (CellTiter AQueous Non-Radioactive Cell Proliferation Assay, #G3581) was mixed and continued to be placed in the cell incubator for 2 hours of incubation.
(§5) (10) The absorbance value at 490 nm was measured on an enzyme labeling apparatus, and the IC50 value was calculated.
For orientation: Tetrazolium assays rely on reduction of a dye to a coloured formazan, in cell work by metabolically active cells.

In the next data set the test system is BXPC3-CSC. The experiment in a line: MTS cell viability assay, BXPC3-CSC. As to conditions: Table 6, tumor stem cell, 72 hours; read-out: IC50 against BXPC3-CSC. How it is done: as §1, §2, §3
as §4, with “well; […]” for “well;”
as §5

In the next data set the test system is HepG2-CSC. In words: MTS cell viability assay, HepG2-CSC. The note with it: Table 6, tumor stem cell, 72 hours; read-out: IC50 against HepG2-CSC. How it is done:
as §1, §2, §3
as §4, with “well; […]” for “well;”
as §5

A further data set relates to U87. The experiment in a line: MTS cell viability assay, U87. The note with it: Homo sapiens, U-87 MG; Table 7, 72 hours; read-out: IC50 against U87. How it is done: as §1, §2, §3
as §4, with “well; […]” for “well;”
as §5

Another data set concerns T98G. In words: MTS cell viability assay, T98G. The note with it: Homo sapiens, Table 7, 72 hours, read-out: IC50 against T98G. How it is done: as §1, §2, §3
as §4, with “well; […]” for “well;”
as §5

The subject of another data set is PANC1. The experiment in a line: MTS cell viability assay, PANC1. As to conditions: Homo sapiens, PANC-1; Table 7, 72 hours; read-out: IC50 against PANC1. How it is done: as §1, §2, §3
as §4, with “well; […]” for “well;”
as §5

For another data set, the system named is BXPC3. In words: MTS cell viability assay, BXPC3. The note with it: Homo sapiens, BXPC-3; Table 7, 72 hours; read-out: IC50 against BXPC3. How it is done: as §1, §2, §3
as §4, with “well; […]” for “well;”
as §5

In the next data set the test system is MDA-MB231. The experiment in a line: MTS cell viability assay, MDA-MB231. As to conditions: Homo sapiens, MDA-MB-231; Table 7, 72 hours; read-out: IC50 against MDA-MB231. The method, then:
as §1, §2, §3
as §4, with “well; […]” for “well;”
as §5

The subject of a further data set is A549. The experiment in a line: MTS cell viability assay, A549. The note with it: Homo sapiens, Table 7, 72 hours, read-out: IC50 against A549. How it is done: as §1, §2, §3
as §4, with “well; […]” for “well;”
as §5

The test system of another data set is HEC18. In words: MTS cell viability assay, HEC18. As to conditions: Table 7, 72 hours; read-out: IC50 against HEC18. The method, then:
as §1, §2, §3
as §4, with “well; […]” for “well;”
as §5

A further data set has as its system ASPC1. The experiment in a line: MTS cell viability assay, ASPC1. As to conditions: Homo sapiens, Table 7, 72 hours, read-out: IC50 against ASPC1. The method, then: as §1, §2, §3
as §4, with “well; […]” for “well;”
as §5

The test system of a further data set is HepG2. In words: MTS cell viability assay, HepG2. The note with it: Homo sapiens, Table 7, 72 hours, read-out: IC50 against HepG2. The method, then: as §1, §2, §3
as §4, with “well; […]” for “well;”
as §5

For another data set, the system named is MHCC97. The experiment in a line: MTS cell viability assay, MHCC97. As to conditions: Homo sapiens, Table 7, 72 hours, read-out: IC50 against MHCC97. How it is done: as §1, §2, §3
as §4, with “well; […]” for “well;”
as §5

For the next data set, the system named is SMMC7721. In words: MTS cell viability assay, SMMC7721. The note with it: Homo sapiens, SMMC-7721; Table 7, 72 hours; read-out: IC50 against SMMC7721. How it is done: as §1, §2, §3
as §4, with “well; […]” for “well;”
as §5

The test system of another data set is PC3. In words: MTS cell viability assay, PC3. The note with it: Homo sapiens, PC-3; Table 7, 72 hours; read-out: IC50 against PC3. How it is done:
as §1, §2, §3
as §4, with “well; […]” for “well;”
as §5

Molecules are shown by their SMILES. Values after ≈ are worked out from the molar mass of the structure shown.

For `CCCCCc1cc(O)c2c(c1)OC1(C)CCC3C1C2C3(C)C` (centres unmarked) [Compound 3a, cannabicyclol], the IC50 (usually the point on the concentration scale where inhibition reaches its midpoint) with GSC-3 (3#-GSC) (GSC-3, 72 h, read-out: IC50 against GSC-3) was 3.85 µg/mL (≈ 12.2 µM); in the data set on BXPC3-CSC it was 2.19 µg/mL (≈ 6.96 µM); in the data set on HepG2-CSC, 2.37 µg/mL (≈ 7.54 µM); in the data set on U87, more than 40 µg/mL; in the data set on T98G, more than 40 µg/mL; with PANC1, more than 40 µg/mL. Also, the IC50 in the data set with BXPC3, with MDA-MB231, with A549, in the data set on HEC18, in the data set with ASPC1 and in the data set with HepG2 was more than 40 µg/mL each time. Further, the IC50 with MHCC97, in the data set on SMMC7721 and in the data set on PC3 was more than 40 µg/mL in each case. In addition, the “selective anti-glioma stem cell viability” value with GSC-3 (3#-GSC) (judged in words from preliminary viability screening against 3#-GSC, 293T and U251) is “a certain degree of selective anti-glioma stem cell viability”. In addition, the “Cell viability in 3#-GSC (%)” value with GSC-3 (3#-GSC) (primary viability screening, 72 hours, MTS, test concentration not stated) is 20%.
